From US20170014422A1 (SYNTHON B.V., priority 2014, published 2017) come the findings set out here.

Structures can show the parent of a compound that is named as a salt.

This data set is described as follows: Laboratory observation of polymorphic transformation of polymorph IV in pharmaceutical compositions. Particulars: especially in pharmaceutical compositions; more pronounced in humid environments. It is filed as physicochemical.

With `COc1cc2c(cc1OC)CC(=O)N(CCCN(C)C[C@H]1Cc3cc(OC)c(OC)cc31)CC2` [ivabradine hydrochloride polymorph IV, 3-(3-{[((7S)-3,4-dimethoxybicyclo[4.2.0]octa-1,3,5-trien-7-yl)methyl]methylamino}propyl)-7,8-dimethoxy-1,3,4,5-tetrahydro-2H-3-benzazepin-2-one], the “Polymorphic stability over time” value is reported as “transforms over time into the more stable polymorph β”.
